# Molecular target: T1, Tumor necrosis factor receptor superfamily member 1A (Homo sapiens, UniProt P19438)
# T1 sequence (P19438 whole entry): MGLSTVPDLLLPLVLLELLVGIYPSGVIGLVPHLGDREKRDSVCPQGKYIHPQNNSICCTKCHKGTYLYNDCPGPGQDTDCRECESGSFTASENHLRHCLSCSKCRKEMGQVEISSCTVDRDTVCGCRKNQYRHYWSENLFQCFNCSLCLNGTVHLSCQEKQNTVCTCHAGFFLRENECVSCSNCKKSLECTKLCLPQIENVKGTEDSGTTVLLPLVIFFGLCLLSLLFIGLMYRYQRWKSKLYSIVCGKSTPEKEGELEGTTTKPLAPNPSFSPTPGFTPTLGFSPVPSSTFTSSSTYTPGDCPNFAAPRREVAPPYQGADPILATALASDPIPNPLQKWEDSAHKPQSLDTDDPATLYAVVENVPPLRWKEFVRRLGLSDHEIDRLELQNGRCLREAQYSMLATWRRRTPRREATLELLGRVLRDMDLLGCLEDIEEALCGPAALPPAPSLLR
# Experiment: ChEBML_212214
# Excerpt: Inhibition of TNF-alpha binding to TNFRc1
row,Compound,IC50 [nM]
1,"C=CCn1c(S)c2c(=C)c3c(OC)cc(OC)cc3n2c1=S [2-Allyl-6,8-dimethoxy-9-methyl-imidazo[1,5-a]indole-1,3-dithione]",210
2,"C=CCn1c(S)c2c(=C)c3c(OC)cc(OC)cc3n2c1=O [2-Allyl-6,8-dimethoxy-9-methyl-1-thioxo-1,2-dihydro-imidazo[1,5-a]indol-3-one]",210
